The values that follow come from ChEMBL document CHEMBL4229420, “ROCK inhibitors 2. Improving potency, selectivity and solubility through the application of rationally designed solubilizing groups” (Bioorg Med Chem Lett, 2018).

The nature of the series: Solubility of the compound in pH 7.4 phosphate buffer. It counts as physicochemical.
Where [1] appears, read: phosphate buffer, read-out: solubility.

Structures are written as SMILES. Converted amounts (≈) assume the structure as drawn.

Take `COc1cccc(CC(=O)Nc2nc(-c3ccncc3)cs2)c1`: the solubility (commonly the dissolved amount per volume that the medium holds) under setting [1] was 22 µM (≈ 7.16 µg/mL).
On the same count and under the same terms, to `CN1CCC(CCCOc2cccc(CC(=O)Nc3nc(-c4ccncc4)cs3)c2)CC1` belongs greater than 200 µM; to `O=C(Cc1cccc(OCCN2CCNCC2)c1)Nc1nc(-c2ccncc2)cs1`, greater than 200 µM.
Under “buffer”, `CN1CCN(CCCOc2cccc(CC(=O)Nc3nc(-c4ccncc4)cs3)c2)CC1` registered a solubility greater than 200 µM.
As for `O=C(Cc1cccc(OCCCN2CCOCC2)c1)Nc1nc(-c2ccncc2)cs1`, under setting [1], the solubility was greater than 200 µM.
On to `CN1CCN(CCOc2cccc(CC(=O)Nc3nc(-c4ccncc4)cs3)c2)CC1`, for which, under setting [1], the solubility is greater than 200 µM.
Turning to `O=C(Cc1cccc(OCCN2CCCCC2)c1)Nc1nc(-c2ccncc2)cs1`, the solubility under setting [1] was greater than 200 µM.
Turning to `O=C(Cc1cccc(OCCCN2CCNCC2)c1)Nc1nc(-c2ccncc2)cs1`, the solubility under setting [1] was greater than 200 µM.
With `O=C(Cc1cccc(OCCN2CCOCC2)c1)Nc1nc(-c2ccncc2)cs1`, under setting [1], the solubility was greater than 200 µM.
As for `O=C(Cc1cccc(OCCCN2CCCCC2)c1)Nc1nc(-c2ccncc2)cs1`, under setting [1], the solubility is greater than 200 µM.
In turn, `O=C(Cc1cccc(OCCCC2CCNCC2)c1)Nc1nc(-c2ccncc2)cs1` registered a solubility (buffer) greater than 200 µM.
